Tests used:
Test in all cases: Post-emergence herbicidal activity test (stem and leaf spray, pot culture)
Type in all cases: in vivo
Conditions in all cases: 3 weeks after spraying
Abutilon theophrasti = system: Abutilon theophrasti
Summary of the method: (§1)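 Activity is given as a 0–5 grade of fresh weight growth control, scored three weeks after a single stem-and-leaf spray. Weeds in farmland loam were treated at the 2- to 3-leaf stage at 10, 5 and 2.5 g/mu, with methyl oleate added as synergist.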

Amaranthus retroflexus = system: Amaranthus retroflexus
Summary of the method: as §1

Echinochloa crusgalli = system: Echinochloa crusgalli
Summary of the method: as §1

Portulaca oleracea = system: Portulaca oleracea
Summary of the method: as §1

Setaria viridis = system: Setaria viridis
Summary of the method: as §1

Trifoliumre pensL. = system: Trifoliumre pensL.
Summary of the method: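 Pot-grown weeds in loam (pH 7), greenhouse at 20–30 °C, sprayed once post-emergence at the 2–3-leaf stage. Compound in acetone with Tween 80 plus methyl oleate oil (1.5 L/ha), applied at 10, 5 and 2.5 g/mu by spray tower. Effect scored 3 weeks after spraying, averaged over three repeats.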

Compound	Post-emergence herbicidal activity, A. theophrasti (grade) (Abutilon theophrasti; dosage 2.5 g/mu)	Post-emergence herbicidal activity, A. theophrasti (grade) (Abutilon theophrasti; dosage 5 g/mu)	Post-emergence herbicidal activity, A. theophrasti (grade) (Abutilon theophrasti; dosage 10 g/mu)	Post-emergence herbicidal activity, A. retroflexus (grade) (Amaranthus retroflexus; dosage 2.5 g/mu)	Post-emergence herbicidal activity, A. retroflexus (grade) (Amaranthus retroflexus; dosage 5 g/mu)	Post-emergence herbicidal activity, A. retroflexus (grade) (Amaranthus retroflexus; dosage 10 g/mu)	Post-emergence herbicidal activity, E. crusgalli (grade) (Echinochloa crusgalli; dosage 2.5 g/mu)	Post-emergence herbicidal activity, E. crusgalli (grade) (Echinochloa crusgalli; dosage 5 g/mu)	Post-emergence herbicidal activity, E. crusgalli (grade) (Echinochloa crusgalli; dosage 10 g/mu)	Post-emergence herbicidal activity, P. oleracea (grade) (Portulaca oleracea; dosage 2.5 g/mu)	Post-emergence herbicidal activity, P. oleracea (grade) (Portulaca oleracea; dosage 5 g/mu)	Post-emergence herbicidal activity, P. oleracea (grade) (Portulaca oleracea; dosage 10 g/mu)	Post-emergence herbicidal activity, S. viridis (grade) (Setaria viridis; dosage 2.5 g/mu)	Post-emergence herbicidal activity, S. viridis (grade) (Setaria viridis; dosage 5 g/mu)	Post-emergence herbicidal activity, S. viridis (grade) (Setaria viridis; dosage 10 g/mu)	Post-emergence herbicidal activity, Trifoliumre pensL. (grade) (Trifoliumre pensL.; dosage 2.5 g/mu)	Post-emergence herbicidal activity, Trifoliumre pensL. (grade) (Trifoliumre pensL.; dosage 5 g/mu)	Post-emergence herbicidal activity, Trifoliumre pensL. (grade) (Trifoliumre pensL.; dosage 10 g/mu)
O=C1C2=C(CCCC2)C(=O)N1c1cc(OCc2nc(-c3ccco3)no2)c(Cl)cc1F [Compound A22]	5 (Grade 5: the growth control rate is greater than or equal to 85%)	5 (Grade 5: the growth control rate is greater than or equal to 85%)	5 (Grade 5: the growth control rate is greater than or equal to 85%)	5 (Grade 5: the growth control rate is greater than or equal to 85%)	5 (Grade 5: the growth control rate is greater than or equal to 85%)	5 (Grade 5: the growth control rate is greater than or equal to 85%)	1 (Grade 1: the growth control rate is greater than or equal to 5% and less than 20%)	2 (Grade 2: the growth control rate is greater than or equal to 20% and less than 40%)	3 (Grade 3: the growth control rate is greater than or equal to 40% and less than 60%)	4 (Grade 4: the growth control rate is greater than or equal to 60% and less than 85%)	5 (Grade 5: the growth control rate is greater than or equal to 85%)	5 (Grade 5: the growth control rate is greater than or equal to 85%)	2 (Grade 2: the growth control rate is greater than or equal to 20% and less than 40%)	3 (Grade 3: the growth control rate is greater than or equal to 40% and less than 60%)	4 (Grade 4: the growth control rate is greater than or equal to 60% and less than 85%)	4 (Grade 4: the growth control rate is greater than or equal to 60% and less than 85%)	5 (Grade 5: the growth control rate is greater than or equal to 85%)	5 (Grade 5: the growth control rate is greater than or equal to 85%)
Cc1cc(F)ccc1-c1noc(COc2cc(N3C(=O)C4=C(CCCC4)C3=O)c(F)cc2Cl)n1 [Compound A23]	5 (Grade 5: the growth control rate is greater than or equal to 85%)	5 (Grade 5: the growth control rate is greater than or equal to 85%)	5 (Grade 5: the growth control rate is greater than or equal to 85%)	5 (Grade 5: the growth control rate is greater than or equal to 85%)	5 (Grade 5: the growth control rate is greater than or equal to 85%)	5 (Grade 5: the growth control rate is greater than or equal to 85%)	1 (Grade 1: the growth control rate is greater than or equal to 5% and less than 20%)	2 (Grade 2: the growth control rate is greater than or equal to 20% and less than 40%)	3 (Grade 3: the growth control rate is greater than or equal to 40% and less than 60%)	4 (Grade 4: the growth control rate is greater than or equal to 60% and less than 85%)	5 (Grade 5: the growth control rate is greater than or equal to 85%)	5 (Grade 5: the growth control rate is greater than or equal to 85%)	2 (Grade 2: the growth control rate is greater than or equal to 20% and less than 40%)	3 (Grade 3: the growth control rate is greater than or equal to 40% and less than 60%)	4 (Grade 4: the growth control rate is greater than or equal to 60% and less than 85%)	4 (Grade 4: the growth control rate is greater than or equal to 60% and less than 85%)	5 (Grade 5: the growth control rate is greater than or equal to 85%)	5 (Grade 5: the growth control rate is greater than or equal to 85%)
O=C1C2=C(CCCC2)C(=O)N1c1cc(OCc2nc(-c3c(F)cccc3F)no2)c(Cl)cc1F [Compound A24]	5 (Grade 5: the growth control rate is greater than or equal to 85%)	5 (Grade 5: the growth control rate is greater than or equal to 85%)	5 (Grade 5: the growth control rate is greater than or equal to 85%)	5 (Grade 5: the growth control rate is greater than or equal to 85%)	5 (Grade 5: the growth control rate is greater than or equal to 85%)	5 (Grade 5: the growth control rate is greater than or equal to 85%)	1 (Grade 1: the growth control rate is greater than or equal to 5% and less than 20%)	2 (Grade 2: the growth control rate is greater than or equal to 20% and less than 40%)	3 (Grade 3: the growth control rate is greater than or equal to 40% and less than 60%)	4 (Grade 4: the growth control rate is greater than or equal to 60% and less than 85%)	5 (Grade 5: the growth control rate is greater than or equal to 85%)	5 (Grade 5: the growth control rate is greater than or equal to 85%)	2 (Grade 2: the growth control rate is greater than or equal to 20% and less than 40%)	3 (Grade 3: the growth control rate is greater than or equal to 40% and less than 60%)	4 (Grade 4: the growth control rate is greater than or equal to 60% and less than 85%)	4 (Grade 4: the growth control rate is greater than or equal to 60% and less than 85%)	5 (Grade 5: the growth control rate is greater than or equal to 85%)	5 (Grade 5: the growth control rate is greater than or equal to 85%)
O=C1C2=C(CCCC2)C(=O)N1c1cc(OCc2nc(-c3ccccc3)no2)c(Cl)cc1F [Compound A25]	5 (Grade 5: the growth control rate is greater than or equal to 85%)	5 (Grade 5: the growth control rate is greater than or equal to 85%)	5 (Grade 5: the growth control rate is greater than or equal to 85%)	5 (Grade 5: the growth control rate is greater than or equal to 85%)	5 (Grade 5: the growth control rate is greater than or equal to 85%)	5 (Grade 5: the growth control rate is greater than or equal to 85%)	1 (Grade 1: the growth control rate is greater than or equal to 5% and less than 20%)	2 (Grade 2: the growth control rate is greater than or equal to 20% and less than 40%)	3 (Grade 3: the growth control rate is greater than or equal to 40% and less than 60%)	4 (Grade 4: the growth control rate is greater than or equal to 60% and less than 85%)	5 (Grade 5: the growth control rate is greater than or equal to 85%)	5 (Grade 5: the growth control rate is greater than or equal to 85%)	2 (Grade 2: the growth control rate is greater than or equal to 20% and less than 40%)	3 (Grade 3: the growth control rate is greater than or equal to 40% and less than 60%)	4 (Grade 4: the growth control rate is greater than or equal to 60% and less than 85%)	4 (Grade 4: the growth control rate is greater than or equal to 60% and less than 85%)	5 (Grade 5: the growth control rate is greater than or equal to 85%)	5 (Grade 5: the growth control rate is greater than or equal to 85%)

— patent publication US20240300932A1, “N-PHENYLIMINE DERIVATIVE AND PREPARATION METHOD AND USE THEREOF” (Guizhou University, priority 2023, published 2024)
